Results: the CheMixHub ionic liquid set

Assay: xn = mol fraction of the nth substance listed

CCCCCC[n+]1ccn(C)c1C.O=S(=O)([N-]S(=O)(=O)C(F)(F)F)C(F)(F)F + COCCOCCOCCOCCOC
viscosity [mPa·s], 100 kPa
Conditions | 293.15 K | 298.15 K | 308.15 K
x2 = 0 | – | 129 | –
x2 = 0.102 | 135 | 103 | 64
x2 = 0.306 | 66 | 51 | –

CC(=O)[O-].CC[NH2+]CC + CC(C)=O
298.15 K, 101 kPa
Conditions | electrical conductivity [S/m] | viscosity [mPa·s]
x1 = 0.0095 | 0.001 | –
x1 = 0.0238 | 0.033 | –
x1 = 0.0523 | 0.085 | –
x1 = 0.0729 | 0.131 | –
x1 = 0.098 | – | 0.734
x1 = 0.0983 | 0.171 | –
x1 = 0.194 | – | 1.092
x1 = 0.1981 | 0.328 | –
x1 = 0.2979 | 0.427 | –
x1 = 0.299 | – | 2.01
x1 = 0.401 | 0.479 | –
x1 = 0.402 | – | 3.5
x1 = 0.4945 | 0.505 | –
x1 = 0.5 | – | 5.74
x1 = 0.599 | – | 8.92
x1 = 0.6022 | 0.459 | –
x1 = 0.701 | – | 14.91
x1 = 0.7021 | 0.427 | –
x1 = 0.7971 | 0.387 | –
x1 = 0.802 | – | 24.3
x1 = 0.9002 | 0.341 | –
x1 = 0.903 | – | 38.6
x2 = 0.003 | – | 58.7

CCO + CC[n+]1ccn(C)c1.COS(=O)(=O)[O-]
101 kPa, x2 = 0
Conditions | viscosity [mPa·s]
283.15 K | 1.44
293.15 K | 1.18
303.15 K | 0.98
313.15 K | 0.83
323.15 K | 0.7

CCCCCCCCCCCCCC[n+]1ccccc1.O=C([O-])C(O)c1ccccc1 + NCC(=O)O + O
electrical conductivity [S/m], 101 kPa
Conditions | 293.15 K | 298.15 K | 303.15 K | 308.15 K | 313.15 K
x1 = 5.26e-06, x2 = 0.001799 | 0.00213 | 0.0024 | 0.00272 | 0.00305 | 0.0034
x1 = 6.85e-06, x2 = 0 | 0.00248 | 0.00278 | 0.00309 | 0.0034 | 0.0037
x1 = 8.31e-06, x2 = 0.0009002 | 0.00273 | 0.00309 | 0.00343 | 0.00385 | 0.0042
x1 = 1.142e-05, x2 = 0.001799 | 0.00389 | 0.00438 | 0.00491 | 0.0055 | 0.006
x1 = 1.319e-05, x2 = 0.0009002 | 0.00415 | 0.0047 | 0.00527 | 0.0058 | 0.0064
x1 = 1.424e-05, x2 = 0 | 0.00472 | 0.00529 | 0.00587 | 0.0065 | 0.0071
x1 = 1.685e-05, x2 = 0.001799 | 0.0054 | 0.0061 | 0.0069 | 0.0076 | 0.0084
x1 = 1.735e-05, x2 = 0.0009002 | 0.00534 | 0.00605 | 0.00678 | 0.0075 | 0.0082
x1 = 2.12e-05, x2 = 0.001799 | 0.0066 | 0.0075 | 0.0084 | 0.0093 | 0.0102
x1 = 2.126e-05, x2 = 0 | 0.00671 | 0.0076 | 0.0084 | 0.0093 | 0.0101
x1 = 2.367e-05, x2 = 0.0009002 | 0.00703 | 0.008 | 0.0089 | 0.0099 | 0.0108
x1 = 2.591e-05, x2 = 0.001799 | 0.00789 | 0.009 | 0.01 | 0.0111 | 0.0122
x1 = 2.811e-05, x2 = 0 | 0.0086 | 0.0097 | 0.0108 | 0.0122 | 0.0131
x1 = 2.982e-05, x2 = 0.0009002 | 0.0088 | 0.0098 | 0.011 | 0.0122 | 0.0134
x1 = 3.081e-05, x2 = 0.001799 | 0.0092 | 0.0104 | 0.0117 | 0.013 | 0.0143
x1 = 3.46e-05, x2 = 0 | 0.0103 | 0.0116 | 0.0129 | 0.0145 | 0.0157
x1 = 3.668e-05, x2 = 0.0009002 | 0.0104 | 0.0118 | 0.0132 | 0.0146 | 0.0161
x1 = 3.679e-05, x2 = 0.001799 | 0.0106 | 0.012 | 0.0134 | 0.015 | 0.0166
x1 = 4.108e-05, x2 = 0 | 0.0117 | 0.0131 | 0.0146 | 0.0161 | 0.0179
x1 = 4.337e-05, x2 = 0.0009001 | 0.0117 | 0.0131 | 0.0148 | 0.0165 | 0.0183
x1 = 4.367e-05, x2 = 0.001799 | 0.0119 | 0.0134 | 0.015 | 0.0168 | 0.0186
x1 = 4.811e-05, x2 = 0 | 0.0129 | 0.0144 | 0.0161 | 0.0179 | 0.0198
x1 = 4.951e-05, x2 = 0.0009001 | 0.0126 | 0.0143 | 0.0159 | 0.0178 | 0.0198
x1 = 5.11e-05, x2 = 0.001799 | 0.0131 | 0.0148 | 0.0166 | 0.0186 | 0.0206
x1 = 5.388e-05, x2 = 0 | 0.0137 | 0.0154 | 0.0172 | 0.0191 | 0.0211
x1 = 5.602e-05, x2 = 0.0009001 | 0.0135 | 0.0153 | 0.0171 | 0.0191 | 0.0212
x1 = 5.726e-05, x2 = 0.001799 | 0.014 | 0.0158 | 0.0176 | 0.0198 | 0.0219
x1 = 5.982e-05, x2 = 0 | 0.0145 | 0.0163 | 0.0182 | 0.0202 | 0.0224
x1 = 6.216e-05, x2 = 0.0009001 | 0.0144 | 0.0162 | 0.0181 | 0.0202 | 0.0224
x1 = 6.361e-05, x2 = 0.001799 | 0.0149 | 0.0167 | 0.0187 | 0.0209 | 0.0232
x1 = 6.559e-05, x2 = 0 | 0.0153 | 0.0172 | 0.0192 | 0.0213 | 0.0236
x1 = 6.885e-05, x2 = 0.0009001 | 0.0154 | 0.0172 | 0.0192 | 0.0214 | 0.0239
x1 = 6.959e-05, x2 = 0.001799 | 0.0156 | 0.0176 | 0.0197 | 0.0221 | 0.0245
x1 = 7.081e-05, x2 = 0 | 0.016 | 0.018 | 0.02 | 0.0223 | 0.0246
x1 = 7.463e-05, x2 = 0.0009001 | 0.0161 | 0.0181 | 0.0202 | 0.0225 | 0.0251
x1 = 7.593e-05, x2 = 0.001799 | 0.0165 | 0.0185 | 0.0207 | 0.0233 | 0.0258
x1 = 7.604e-05, x2 = 0 | 0.0167 | 0.0187 | 0.0209 | 0.0232 | 0.0258
x1 = 8.023e-05, x2 = 0.0009001 | 0.0168 | 0.0189 | 0.0211 | 0.0237 | 0.0263
x1 = 8.072e-05, x2 = 0 | 0.0173 | 0.0194 | 0.0217 | 0.0241 | 0.0266

CCC(=O)OC + O=S(=O)([N-]S(=O)(=O)C(F)(F)F)C(F)(F)F.[Li+] + COC(=O)OC
298.15 K, 100 kPa
Conditions | viscosity [mPa·s]
x2 = 0.333, x3 = 0 | 21.6
x2 = 0.333, x3 = 0.3335 | 38.6

CCO + CC[n+]1ccn(C)c1.N#C[N-]C#N
viscosity [mPa·s]
Conditions | 298.15 K | 303.15 K | 308.15 K | 313.15 K | 318.15 K | 323.15 K | 328.15 K
100 kPa, x2 = 0 | 1.11 | 1.02 | 0.93 | 0.85 | 0.78 | 0.71 | –
101 kPa, x1 = 1 | – | – | – | 0.83 | – | – | 0.64
